The pEC50 is the negative decadic logarithm of the EC50, by convention in mol/L.

For experiment [1], the system named is Rat L6 skeletal muscle cells. The experiment is described as follows: Glucose uptake in differentiated L6 cells. The following applies: 100 nM α-MSH and/or 10 nM insulin; FIG. 10. Format: cell-based. How it is done:
Rat L6 skeletal muscle cells were seeded in 12-well plates and differentiated in myotubes by replacing growth medium (DMEM+10% FBS) with DMEM+2% horse serum. Medium was changed every day for 1 week. Cells were preincubated for 20 min with no glucose medium+0.1% fatty acid-free BSA. 10 nM of insulin and/or 100 nM α-MSH was added to the corresponding wells. Glucose uptake was assessed for 15 min using 2-deoxy-D-[2,6-^3H]glucose (1 mmol/1, 0.5 μCi/ml) in the presence or absence of 10 nM insulin and 100 nM of α-MSH. Radioactivity was measured in cell lysates by liquid scintillation counting.

Experiment [2] can be described thus: α-MSH levels after ip insulin injection. Format: in vivo. The note with it: POMC-Kir6.2 mutant mice and control littermates; human insulin 1.0 U/kg ip; FIG. 3B. From the text: POMC-mutKIR6.2 mice is a mutant in which all POMC cells lack the capacity to sense glucose due to dysfunctional ATP/K+ channels. Mutants and wild-type littermates were fed a regular diet. Blood glucose and α-MSH samples were taken after ip injection of human insulin (1.0 U/kg). The results are shown in FIG. 3A. **P<0.01 vs baseline value in the respective group by repeated-measures ANOVA. # P<0.01 vs control littermate at the respective point by single measured.

The next experiment has as its system adult monkey pituitaries. Briefly: α-MSH release from halved pituitaries. Type of experiment: cell-based. The note with it: glucose 15 mM, insulin 200 nM, 45 min; FIG. 1A. How it is done:
Adult monkey pituitaries (n=22) were halved and then treated separately with artificial cerebrospinal fluid (aCSF) equilibrated with 95% O2 and 5% CO2 and incubated at 37° C. After 1 hr equilibration period, halves were incubated for 45 min in aCSF (basal period) before being challenged with glucose (Glu): 15 mM, insulin (Ins): 200 nM or Glu+Ins (15 mM+200 nM) treatments for 45 min. […] This was confirmed by measurement of α-MSH in monkey pituitaries by radioimmunoassay after acidic extraction (FIG. 1B).

Another experiment addresses hMC5R (Homo sapiens, UniProt P33032). The note with it: cited from earlier work.
The nature of experiment [3]: Glucose disposal during ipGTT with systemic α-MSH infusion. Type of experiment: in vivo, mice. The note with it: for glucose disposal during ipGTT: systemic infusion (external jugular vein) 1 μg/h. How it is done:
Mice were instrumented with an arterial catheter (carotid artery) to monitor blood pressure (BP), heart rate (HR) and for sampling. At the same time, a venous catheter (jugular vein) was placed to infuse α-MSH (1 μg/h) for 3 h. Blood glucose was measured before and at 10 and 20 mins of α-MSH infusion. After that, mice received an ip glucose injection (GTT, 1 mg/g). Blood glucose levels were measured at 15, 30, 60 and 120 mins after glucose challenge. BP and […] were recorded during whole procedure. The results are shown in FIGS. 5A and 5B. **[…] vs saline infusion. In a further experiment, MC4R activity was blocked using agouti-related peptide (AgRP; 1.0 nmol, 1 μl) administered (by injection to the lateral ventricle) 1 hr before commencement of the α-MSH infusion.

For the next experiment, the system named is skeletal muscle cells. The experiment is described as follows: Glucose uptake in skeletal muscle cells with MC5R agonist. Type of experiment: cell-based.
Experiment [4] relates to p-AMPK. Briefly: p-AMPK levels in soleus muscles treated in vitro (Western blot). The following applies: lean mice; 1, 10 and 100 nM for 45 min in vitro; FIG. 8. Type of experiment: cell-based. How it is done:
Soleus muscles were dissected from anaesthetised mice. Muscles were incubated with α-MSH (at 1, 10, and 100 nM) for 45 min. After that, muscles were immediately homogenised in cold RIPA lysis buffer. Homogenates were centrifugated and supernatant were collected to measure protein contents ([…]). 50 μg of each sample was loaded on a 10% Tris-Glycine pre-cast gel. A liver protein sample was run as a positive control. The gel was then transferred onto an Immobilon PVDF membrane for 2 h and after blocking for 1 h with 5% milk in TBST, was incubated o/n with anti-p-AMPK antibody (1:1000; Cell Signaling Technology, Inc, Danvers, Mass., United States of America), anti-total AMPK (1:1000, Cell Signaling Technology, Inc), or anti-GAPDH antibody (1:20000). To avoid interferences with total AMPK antibody, membranes were stripped before incubating with this antibody. Goat anti-mouse IgG horseradish peroxidase (1:50000, Santa Cruz Biotechnology, Inc, Santa Cruz, Calif., United States of America) was used as secondary antibody.

Another experiment deals with cAMP. Briefly: cAMP levels in muscles after α-MSH infusion (immunoassay). The note with it: control mice; 45 minutes of α-MSH infusion; FIG. 9A. Type of experiment: in vivo. As for the experimental part: To measure cAMP concentrations and to determine p-AMPK protein expression in muscles, an experiment was conducted according to a similar design to that described in FIG. 5. Muscle tissues were obtained after 45 minutes of initiating α-MSH infusion and 25 minutes of administering glucose injection. cAMP concentration was determined with a direct immunoassay kit (BioVision Research Products, Mountain View, Calif., United States of America). The kit has a cAMP polyclonal antibody onto the plate. cAMP-HRP conjugates directly compete with cAMP from sample binding to the cAMP antibody on the plate. The HRP activity at 450 nm is inversely proportional to the cAMP concentration in samples. White bars: saline infusion, dark bars: α-MSH infusion
On the technique in general: cAMP levels reflect the balance of adenylyl cyclase and phosphodiesterase activity.

The subject of experiment [5] is p-AMPK. Briefly: p-AMPK protein expression in muscles after α-MSH infusion (Western blot). Format: in vivo. The following applies: control mice, FIG. 9B. As for the experimental part:
To measure cAMP concentrations and to determine p-AMPK protein expression in muscles, an experiment was conducted according to a similar design to that described in FIG. 5. Muscle tissues were obtained after 45 minutes of initiating α-MSH infusion and 25 minutes of administering glucose injection. cAMP concentration was determined with a direct immunoassay kit (BioVision Research Products, Mountain View, Calif., United States of America). The kit has a cAMP polyclonal antibody onto the plate. cAMP-HRP conjugates directly compete with cAMP from sample binding to the cAMP antibody on the plate. The HRP activity at 450 nm is inversely proportional to the cAMP concentration in samples. White bars: saline infusion, dark bars: α-MSH infusion p-AMPK and total AMPK were determined by Western blot. Results shown in FIG. 9B are expressed as a ratio P/Total AMPK. *P<0.05
(In general: In western blotting, separated proteins are transferred to a membrane and probed.)

Another experiment relates to soleus muscles. The experiment is described as follows: Glucose uptake in isolated soleus muscles (2-deoxy-D-[3H]glucose). Type of experiment: cell-based, mice. The note with it: 100 nM, presence and absence of 10 nM insulin. As for the experimental part:
Mice were fasted overnight and soleus muscles were dissected from anaesthetised mice. Muscles were preincubated for 30 min with 1 ml of warmed (30° C.), pregassed (95% O2-5% CO2, pH 7.4), modified Krebs-Henseleit buffer supplemented with 2 mmol/l sodium pyruvate, 8 mmol/l mannitol, and 0.1% wt/vol BSA and were then incubated with or without 10 nM insulin, α-MSH (100 nM) or α-MSH plus insulin (100 nM+10 nM) for 20 min. Glucose uptake was assessed for 10 min using 2-deoxy-D-[2,6-^3H]glucose (1 mmol/1, 0.5 μCi/ml) in the presence or absence of 10 nM insulin. Radioactivity was measured in muscle lysates by liquid scintillation counting.

Experiment [6] in a line: Muscle temperature in sheep during α-MSH infusion. Type of experiment: in vivo. How it is done: Four ovariectomised ewes were placed on a diet of temporal food restriction where food was made available between 11:00-16:00 h (as depicted by the grey box in FIGS. 4A and 4B). Animals were exposed to this feeding window for at least 2 weeks prior to experimentation. Then, one week before the onset of experiments, an indwelling cannulae was surgically inserted into the external jugular vein (experiment a) or femoral artery (experiment b). At the same time, a datalogger was implanted into the vastus lateralis muscle of the hindlimb and programmed to read temperature at 15 min intervals. Animals were treated with either α-MSH 100 μg/h (▾ triangles) for experiment a or 1 μg/h for experiment b or saline (800 μl/h, […]). Infusions were carried out between 10:00-19:00 h.

pEC50: −log10 of the molar value.

Sequence of hMC5R (P33032 whole entry, the tested form may be a part): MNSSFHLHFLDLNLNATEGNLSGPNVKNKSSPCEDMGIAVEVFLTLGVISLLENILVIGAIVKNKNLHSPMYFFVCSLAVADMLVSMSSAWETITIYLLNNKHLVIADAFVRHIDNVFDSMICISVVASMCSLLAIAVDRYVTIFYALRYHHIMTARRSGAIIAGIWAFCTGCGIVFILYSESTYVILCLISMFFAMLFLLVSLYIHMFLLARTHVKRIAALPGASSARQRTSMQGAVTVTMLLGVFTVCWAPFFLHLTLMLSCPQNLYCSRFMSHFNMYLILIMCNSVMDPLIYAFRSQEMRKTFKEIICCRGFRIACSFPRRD

In the case of insulin, in experiment [1], the “glucose uptake by rat L6 cells” value is given as “increases in glucose uptake”. Besides, in [2], the “α-MSH levels in response to insulin” value is “do not change”. In the experiment on adult monkey pituitaries, the “α-MSH release from pituitaries” value is “stimulate α-MSH release”.
Turning to “Ac-Nle-c[Asp-Hyp-D-Nal(2′)-Arg-Trp-Lys]-NH2 [PG-911]”, at hMC5R, the pEC50 is 10.51.
On to “agouti-related peptide (SSRRCVRLHESCLGQQVPCCDPCATCYCRFFNAFCYCRKLGTAMNPCSRT; UniProt O00253 83-132, looked up) [AgRP, reference compound]”, for which, in [3] (AgRP 1.0 nmol to lateral ventricle 1 hr before α-MSH infusion, to block MC4R, FIG. 5C), the “effect on the response (increased glucose disposal) to α-MSH infusion” value was “does not prevent the response”.
As for “Ac-Nle-c[Asp-Pro-D-Nal(2′)-Arg-Trp-Lys]-NH2 (XDPXRWK; Ac, amide, cyclic lactam, Nle, D-Nal(2'); PG-901)”, in the experiment with skeletal muscle cells (1 nM and 5 nM amounts, FIG. 5D), the “increases of glucose uptake in skeletal muscle cells” value was 30-40%. In addition, the “effect of an MC3R and MC4R antagonist on the increase of glucose uptake” value in the experiment with skeletal muscle cells (1 nM and 5 nM amounts, data not shown) is “unaffected by the presence of an MC3R and MC4R antagonist”. The “glucose uptake in muscle cells” value in the experiment on skeletal muscle cells (FIG. 5D) was “increases glucose uptake in muscle cells”.
As to “α-melanocyte stimulating hormone (SYSMEHFRWGKPV) [α-MSH, native peptide; native agonist for the type 1, 3, 4 and 5 melanocortin receptors]”, in [1], the “glucose uptake by rat L6 cells” value was “increases in glucose uptake”. In the experiment with p-AMPK [4], the p-AMPK muscle levels entry is “dose-dependent increase of p-AMPK muscle levels”. The “cAMP levels in muscles” value with cAMP is “increase of cAMP levels”. For the same substance, in the experiment on p-AMPK [5], the “p-AMPK protein expression in muscles (ratio P/Total AMPK)” value was “increased”. Besides, the “glucose uptake in soleus muscles” value was “increases glucose uptake” in the experiment on soleus muscles (control mice, FIG. 6A) and “does not increase glucose uptake” in the experiment on soleus muscles (obese mice, FIG. 6B). Besides, the muscle temperature result in experiment [6] (direct infusion into femoral artery, 1 μg/h, FIG. 4B) is “causes an increase in muscle temperature”. The post-prandial muscle temperature result in experiment [6] (systemic infusion (external jugular vein), 100 μg/h, FIG. 4A) is on record as “increases post-prandial muscle temperature”. Besides, the “response to α-MSH infusion” value in experiment [3] (MC4R KO mice, data not shown) was “intact response”. Besides, the “glucose disposal during ipGTT” value in experiment [3] (control mice, FIG. 5A) is recorded as “increases glucose disposal”; in [3] (obese (DIO) mice, FIG. 5B) it was “does not increase glucose disposal”.

Values taken from US20120309677A1, “METHODS FOR REGULATING BLOOD GLUCOSE LEVELS” (Monash University, priority 2010, published 2012).
